Reference: the NIST ThermoML archive (doi:10.1016/j.jct.2017.05.001)

Experiment: wn = mass fraction of the nth substance listed
Details: Liquid; for mass density: Vibrating tube method

CN(C)CCO [2-(N,N-dimethylamino)ethanol] + O
viscosity [mPa·s]
Details	293.15 K	313.15 K	333.15 K
100 kPa, Concentric cylinders viscometry, w1 = 0.1	1.587	0.947	0.623
100 kPa, Concentric cylinders viscometry, w1 = 0.2	2.614	1.408	0.888
100 kPa, Concentric cylinders viscometry, w1 = 0.3	4.334	2.102	1.226
100 kPa, Concentric cylinders viscometry, w1 = 0.4	6.754	3.068	1.671
100 kPa, Falling or rolling sphere viscometry, w1 = 0.1005	1.559	0.9401	0.6336
100 kPa, Falling or rolling sphere viscometry, w1 = 0.202	2.533	1.368	0.8725
100 kPa, Falling or rolling sphere viscometry, w1 = 0.3005	4.211	2.042	1.217
100 kPa, Falling or rolling sphere viscometry, w1 = 0.3995	6.587	2.99	1.651
5000 kPa, Falling or rolling sphere viscometry, w1 = 0.1005	1.564	0.9415	0.6341
5000 kPa, Falling or rolling sphere viscometry, w1 = 0.202	2.547	1.374	0.877
5000 kPa, Falling or rolling sphere viscometry, w1 = 0.3005	4.223	2.063	1.223
5000 kPa, Falling or rolling sphere viscometry, w1 = 0.3995	6.535	3.031	1.669
10000 kPa, Falling or rolling sphere viscometry, w1 = 0.1005	1.564	0.9437	0.6372
10000 kPa, Falling or rolling sphere viscometry, w1 = 0.202	2.557	1.382	0.8862
10000 kPa, Falling or rolling sphere viscometry, w1 = 0.3005	4.258	2.083	1.239
10000 kPa, Falling or rolling sphere viscometry, w1 = 0.3995	6.564	3.075	1.695
15000 kPa, Falling or rolling sphere viscometry, w1 = 0.1005	1.563	0.9453	0.6403
15000 kPa, Falling or rolling sphere viscometry, w1 = 0.202	2.566	1.392	0.8907
15000 kPa, Falling or rolling sphere viscometry, w1 = 0.3005	4.295	2.103	1.249
15000 kPa, Falling or rolling sphere viscometry, w1 = 0.3995	6.801	3.121	1.719
20000 kPa, Falling or rolling sphere viscometry, w1 = 0.1005	1.562	0.9476	0.6431
20000 kPa, Falling or rolling sphere viscometry, w1 = 0.202	2.574	1.395	0.897
20000 kPa, Falling or rolling sphere viscometry, w1 = 0.3005	4.33	2.121	1.26
20000 kPa, Falling or rolling sphere viscometry, w1 = 0.3995	6.863	3.164	1.742
25000 kPa, Falling or rolling sphere viscometry, w1 = 0.1005	1.561	0.9506	0.6461
25000 kPa, Falling or rolling sphere viscometry, w1 = 0.202	2.583	1.4	0.9026
25000 kPa, Falling or rolling sphere viscometry, w1 = 0.3005	4.374	2.142	1.274
25000 kPa, Falling or rolling sphere viscometry, w1 = 0.3995	6.822	3.209	1.765
30000 kPa, Falling or rolling sphere viscometry, w1 = 0.1005	1.564	0.9525	0.6477
30000 kPa, Falling or rolling sphere viscometry, w1 = 0.202	2.589	1.412	0.9063
30000 kPa, Falling or rolling sphere viscometry, w1 = 0.3005	4.405	2.161	1.283
30000 kPa, Falling or rolling sphere viscometry, w1 = 0.3995	7.027	3.253	1.789
40000 kPa, Falling or rolling sphere viscometry, w1 = 0.1005	1.564	0.957	0.6532
40000 kPa, Falling or rolling sphere viscometry, w1 = 0.202	2.605	1.423	0.9178
40000 kPa, Falling or rolling sphere viscometry, w1 = 0.3005	4.464	2.197	1.305
40000 kPa, Falling or rolling sphere viscometry, w1 = 0.3995	6.883	3.342	1.835
60000 kPa, Falling or rolling sphere viscometry, w1 = 0.1005	1.562	0.9672	0.6631
60000 kPa, Falling or rolling sphere viscometry, w1 = 0.202	2.637	1.45	0.9397
60000 kPa, Falling or rolling sphere viscometry, w1 = 0.3005	4.588	2.273	1.353
60000 kPa, Falling or rolling sphere viscometry, w1 = 0.3995	7.591	3.519	1.927
80000 kPa, Falling or rolling sphere viscometry, w1 = 0.1005	1.57	0.9775	0.6729
80000 kPa, Falling or rolling sphere viscometry, w1 = 0.202	2.672	1.479	0.9613
80000 kPa, Falling or rolling sphere viscometry, w1 = 0.3005	4.73	2.348	1.396
80000 kPa, Falling or rolling sphere viscometry, w1 = 0.3995	–	3.698	2.019
100000 kPa, Falling or rolling sphere viscometry, w1 = 0.1005	1.577	0.9881	0.685
100000 kPa, Falling or rolling sphere viscometry, w1 = 0.202	2.706	1.508	0.9835
100000 kPa, Falling or rolling sphere viscometry, w1 = 0.3005	4.861	2.424	1.442
100000 kPa, Falling or rolling sphere viscometry, w1 = 0.3995	–	3.881	2.113

mass density [kg/m3]
Details	w1 = 0.1005	w1 = 0.202	w1 = 0.3005	w1 = 0.3995
293.15 K, 100 kPa	994.5	992.6	990.6	986.6
293.15 K, 500 kPa	994.7	992.7	990.7	986.7
293.15 K, 1000 kPa	994.8	992.9	990.9	986.9
293.15 K, 2000 kPa	995.3	993.3	991.3	987.3
293.15 K, 5000 kPa	996.5	994.4	992.4	988.4
293.15 K, 10000 kPa	998.5	996.3	994.2	990.3
293.15 K, 15000 kPa	1000.5	998.2	996	992.1
293.15 K, 20000 kPa	1002.6	1000	997.8	994
293.15 K, 30000 kPa	1006.6	1003.7	1001.4	997.5
293.15 K, 40000 kPa	1010.5	1007.4	1004.9	1001
293.15 K, 50000 kPa	1014.3	1010.8	1008.2	1004.4
293.15 K, 60000 kPa	1018.1	1014.3	1011.6	1007.7
293.15 K, 70000 kPa	1021.8	1017.9	1014.9	1011
293.15 K, 80000 kPa	1025.3	1021.1	1018	1014.1
293.15 K, 90000 kPa	1029	1024.4	1021.2	1017.3
293.15 K, 100000 kPa	1032.5	1027.7	1024.3	1020.4
293.15 K, 110000 kPa	1035.9	1030.8	1027.2	1023.2
293.15 K, 120000 kPa	1039.3	1033.9	1030.2	1026.3
293.15 K, 130000 kPa	1042.7	1037.2	1033.3	1029.2
293.15 K, 140000 kPa	1045.7	1040.1	1036	1031.9
313.15 K, 100 kPa	987.4	983.2	978.8	972.7
313.15 K, 500 kPa	987.6	983.4	979	972.9
313.15 K, 1000 kPa	987.8	983.6	979.2	973.1
313.15 K, 2000 kPa	988.3	984	979.6	973.5
313.15 K, 5000 kPa	989.5	985.2	980.8	974.7
313.15 K, 10000 kPa	991.5	987.2	982.7	976.7
313.15 K, 15000 kPa	993.4	989.1	984.6	978.6
313.15 K, 20000 kPa	995.4	990.9	986.5	980.6
313.15 K, 30000 kPa	999.4	994.8	990.3	984.4
313.15 K, 40000 kPa	1003.4	998.6	994	988.2
313.15 K, 50000 kPa	1007	1002.1	997.5	991.7
313.15 K, 60000 kPa	1010.8	1005.6	1001	995.3
313.15 K, 70000 kPa	1014.5	1009.1	1004.4	998.7
313.15 K, 80000 kPa	1018	1012.5	1007.6	1002
313.15 K, 90000 kPa	1021.4	1015.7	1010.9	1005.3
313.15 K, 100000 kPa	1024.9	1019.1	1014.1	1008.5
313.15 K, 110000 kPa	1028.3	1022.3	1017.3	1011.7
313.15 K, 120000 kPa	1031.6	1025.6	1020.4	1014.7
313.15 K, 130000 kPa	1035	1028.6	1023.4	1017.7
313.15 K, 140000 kPa	1038.2	1031.7	1026.4	1020.7
333.15 K, 100 kPa	977.4	971.5	965.2	957.4
333.15 K, 500 kPa	977.6	971.8	965.4	957.6
333.15 K, 1000 kPa	977.8	972	965.6	957.9
333.15 K, 2000 kPa	978.2	972.4	966.1	958.3
333.15 K, 5000 kPa	979.5	973.7	967.3	959.6
333.15 K, 10000 kPa	981.5	975.7	969.5	961.8
333.15 K, 15000 kPa	983.6	977.7	971.5	963.9
333.15 K, 20000 kPa	985.6	979.7	973.5	966
333.15 K, 30000 kPa	989.7	983.7	977.5	970.2
333.15 K, 40000 kPa	993.7	987.7	981.5	974.2
333.15 K, 50000 kPa	997.3	991.3	985.2	977.9
333.15 K, 60000 kPa	1001.1	995	988.9	981.7
333.15 K, 70000 kPa	1004.9	998.6	992.5	985.4
333.15 K, 80000 kPa	1008.4	1002.1	996	988.9
333.15 K, 90000 kPa	1012	1005.4	999.2	992.3
333.15 K, 100000 kPa	1015.4	1008.9	1002.7	995.8
333.15 K, 110000 kPa	1018.9	1012.2	1006	999
333.15 K, 120000 kPa	1022.3	1015.5	1009.3	1002.4
333.15 K, 130000 kPa	1025.5	–	–	–
